# Columns and labels:
# Test in all cases: relative viability (nuclei count vs DMSO), 5 days (fraction); higher = more cells survive
# 17-AAG + Lapatinib = compound: C=CCNC1=C2C[C@@H](C)C[C@H](OC)[C@H](O)[C@@H](C)/C=C(\C)[C@H](OC(N)=O)[C@@H](OC)/C=C\C=C(/C)C(=O)NC(=CC1=O)C2=O [17-AAG] + CS(=O)(=O)CCNCc1ccc(-c2ccc3ncnc(Nc4ccc(OCc5cccc(F)c5)c(Cl)c4)c3c2)o1 [Lapatinib] (partner 2 µM)
# Outline: (§1)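 A single step with final 0.05% Triton X-100, 1% formaldehyde and 1 ug/ml Hoechst fixed the cells and stained nuclei 5 days after treatment. Lung cancer cell lines in 1536-well plates had been treated by pin tool the day after seeding with one drug alone or a fixed anchor-drug dose plus five library-drug doses (not always all listed) in √10 steps, and nuclei were counted on 4× images. Relative viability is the ratio of nuclei in treated wells to nuclei in vehicle wells, taken as the median of duplicate plates.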
# 17-AAG + Crizotinib = compound: C=CCNC1=C2C[C@@H](C)C[C@H](OC)[C@H](O)[C@@H](C)/C=C(\C)[C@H](OC(N)=O)[C@@H](OC)/C=C\C=C(/C)C(=O)NC(=CC1=O)C2=O [17-AAG] + C[C@@H](Oc1cc(-c2cnn(C3CCNCC3)c2)cnc1N)c1c(Cl)ccc(F)c1Cl [Crizotinib] (partner 1 µM)
# Outline: as §1
# 17-AAG + Dasatinib = compound: C=CCNC1=C2C[C@@H](C)C[C@H](OC)[C@H](O)[C@@H](C)/C=C(\C)[C@H](OC(N)=O)[C@@H](OC)/C=C\C=C(/C)C(=O)NC(=CC1=O)C2=O [17-AAG] + Cc1nc(Nc2ncc(C(=O)Nc3c(C)cccc3Cl)s2)cc(N2CCN(CCO)CC2)n1 [Dasatinib] (partner 0.075 µM)
# Outline: as §1
# 17-AAG + Pemetrexed = compound: C=CCNC1=C2C[C@@H](C)C[C@H](OC)[C@H](O)[C@@H](C)/C=C(\C)[C@H](OC(N)=O)[C@@H](OC)/C=C\C=C(/C)C(=O)NC(=CC1=O)C2=O [17-AAG] + Nc1nc2[nH]cc(CCc3ccc(C(=O)N[C@@H](CCC(=O)O)C(=O)O)cc3)c2c(=O)[nH]1 [Pemetrexed] (partner 0.2 µM)
# Outline: as §1
cell line,measurement,setting,value
NCI-H3122,relative viability,17-AAG + Lapatinib; first compound 0.00128 µM,1
same,relative viability,17-AAG + Lapatinib; first compound 0.004048 µM,0.931
same,relative viability,17-AAG + Lapatinib; first compound 0.0128 µM,0.542
same,relative viability,17-AAG + Lapatinib; first compound 0.04048 µM,0.293
same,relative viability,17-AAG + Lapatinib; first compound 0.128 µM,0.218
same,relative viability,17-AAG + Crizotinib; first compound 0.00128 µM,0.285
same,relative viability,17-AAG + Crizotinib; first compound 0.004048 µM,0.258
same,relative viability,17-AAG + Crizotinib; first compound 0.0128 µM,0.233
same,relative viability,17-AAG + Crizotinib; first compound 0.04048 µM,0.246
same,relative viability,17-AAG + Crizotinib; first compound 0.128 µM,0.173
same,relative viability,17-AAG + Dasatinib; first compound 0.00128 µM,0.854
same,relative viability,17-AAG + Dasatinib; first compound 0.004048 µM,0.754
same,relative viability,17-AAG + Dasatinib; first compound 0.0128 µM,0.0689
same,relative viability,17-AAG + Dasatinib; first compound 0.04048 µM,0.0681
same,relative viability,17-AAG + Dasatinib; first compound 0.128 µM,0.0701
same,relative viability,17-AAG + Pemetrexed; first compound 0.00128 µM,0.198
same,relative viability,17-AAG + Pemetrexed; first compound 0.004048 µM,0.191
same,relative viability,17-AAG + Pemetrexed; first compound 0.0128 µM,0.127
same,relative viability,17-AAG + Pemetrexed; first compound 0.04048 µM,0.122
same,relative viability,17-AAG + Pemetrexed; first compound 0.128 µM,0.11
LXF-289,relative viability,17-AAG + Lapatinib; first compound 0.00128 µM,0.907
same,relative viability,17-AAG + Lapatinib; first compound 0.004048 µM,0.874
same,relative viability,17-AAG + Lapatinib; first compound 0.0128 µM,0.694
same,relative viability,17-AAG + Lapatinib; first compound 0.04048 µM,0.449
same,relative viability,17-AAG + Lapatinib; first compound 0.128 µM,0.152
same,relative viability,17-AAG + Crizotinib; first compound 0.00128 µM,0.789
same,relative viability,17-AAG + Crizotinib; first compound 0.004048 µM,0.783
same,relative viability,17-AAG + Crizotinib; first compound 0.0128 µM,0.73
same,relative viability,17-AAG + Crizotinib; first compound 0.04048 µM,0.572
same,relative viability,17-AAG + Crizotinib; first compound 0.128 µM,0.163
same,relative viability,17-AAG + Dasatinib; first compound 0.00128 µM,0.234
same,relative viability,17-AAG + Dasatinib; first compound 0.004048 µM,0.183
same,relative viability,17-AAG + Dasatinib; first compound 0.0128 µM,0.0975
same,relative viability,17-AAG + Dasatinib; first compound 0.04048 µM,0.064
same,relative viability,17-AAG + Dasatinib; first compound 0.128 µM,0.0605
same,relative viability,17-AAG + Pemetrexed; first compound 0.00128 µM,0.889
same,relative viability,17-AAG + Pemetrexed; first compound 0.004048 µM,0.874
same,relative viability,17-AAG + Pemetrexed; first compound 0.0128 µM,0.575
same,relative viability,17-AAG + Pemetrexed; first compound 0.04048 µM,0.201
same,relative viability,17-AAG + Pemetrexed; first compound 0.128 µM,0.0927
CAL-12T,relative viability,17-AAG + Lapatinib; first compound 0.00128 µM,0.645
same,relative viability,17-AAG + Lapatinib; first compound 0.004048 µM,0.598
same,relative viability,17-AAG + Lapatinib; first compound 0.0128 µM,0.611
same,relative viability,17-AAG + Lapatinib; first compound 0.04048 µM,0.527
same,relative viability,17-AAG + Lapatinib; first compound 0.128 µM,0.334
same,relative viability,17-AAG + Crizotinib; first compound 0.00128 µM,0.676
same,relative viability,17-AAG + Crizotinib; first compound 0.004048 µM,0.775
same,relative viability,17-AAG + Crizotinib; first compound 0.0128 µM,0.646
same,relative viability,17-AAG + Crizotinib; first compound 0.04048 µM,0.778
same,relative viability,17-AAG + Crizotinib; first compound 0.128 µM,0.255
same,relative viability,17-AAG + Dasatinib; first compound 0.00128 µM,0.475
same,relative viability,17-AAG + Dasatinib; first compound 0.004048 µM,0.396
same,relative viability,17-AAG + Dasatinib; first compound 0.0128 µM,0.456
same,relative viability,17-AAG + Dasatinib; first compound 0.04048 µM,0.326
same,relative viability,17-AAG + Dasatinib; first compound 0.128 µM,0.0959
same,relative viability,17-AAG + Pemetrexed; first compound 0.00128 µM,1.17
same,relative viability,17-AAG + Pemetrexed; first compound 0.004048 µM,0.951
same,relative viability,17-AAG + Pemetrexed; first compound 0.0128 µM,1.15
same,relative viability,17-AAG + Pemetrexed; first compound 0.04048 µM,1.04
same,relative viability,17-AAG + Pemetrexed; first compound 0.128 µM,0.207

# Source: the supplement of paper PMC10307832
